According to ChEMBL document CHEMBL1201862, “PubChem BioAssay data set” (2004):
Activity calls are given as the source filed them. Cut-off read from the data, not from the text of the source, for most assays here: actives have a measured IC50 and inactives only a lower limit.

Legend:
X-box-binding protein 1 = X-box-binding protein 1 (Homo sapiens, UniProt P17861); assay type: functional, Cricetulus griseus;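 note: confirmatory dose-response counter-screen serving a CHOP assay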
[1] = biological target: T1, Dual specificity protein phosphatase 3 (Homo sapiens, UniProt P51452); assay: SAR VHR1 absorbance Assay for In Vitro dose response studies. [Related pubchem assays (depositor defined):AID1654, AID1661, AID1878, AID1992, AID2004]
T1 sequence (P51452 whole entry): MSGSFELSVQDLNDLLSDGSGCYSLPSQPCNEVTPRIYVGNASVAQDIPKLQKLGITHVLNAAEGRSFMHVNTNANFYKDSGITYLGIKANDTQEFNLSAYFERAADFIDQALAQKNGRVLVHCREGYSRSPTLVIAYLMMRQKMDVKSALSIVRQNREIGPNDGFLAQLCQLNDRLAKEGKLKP

[2] = biological target: T2, Dual specificity protein phosphatase 6 (Rattus norvegicus, UniProt Q64346); assay type: functional;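 note: confirmatory in vitro dose-response testing of MKP-3 inhibition; recombinant His-tagged MKP-3 made in E. coli BL21 with OMFP substrate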
T2 sequence (Q64346 whole entry): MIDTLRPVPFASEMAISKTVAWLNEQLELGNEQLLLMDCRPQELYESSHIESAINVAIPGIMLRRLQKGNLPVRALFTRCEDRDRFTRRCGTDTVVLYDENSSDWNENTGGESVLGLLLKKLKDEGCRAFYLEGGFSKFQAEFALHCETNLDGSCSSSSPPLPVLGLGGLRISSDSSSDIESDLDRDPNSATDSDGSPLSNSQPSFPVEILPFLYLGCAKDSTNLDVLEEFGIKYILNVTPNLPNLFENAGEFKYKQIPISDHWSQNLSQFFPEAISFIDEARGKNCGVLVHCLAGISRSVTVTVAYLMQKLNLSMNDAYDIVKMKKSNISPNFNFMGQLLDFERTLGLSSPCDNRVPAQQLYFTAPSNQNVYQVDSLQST

[3] = biological target: T3, Tyrosine-protein phosphatase non-receptor type 7 (Homo sapiens, UniProt P35236); assay: redox-active compounds inhibiting HePTP phosphatase – biochemical, fluorescence, mechanism study (AID 2068); assay type: functional
T3 sequence (P35236 whole entry): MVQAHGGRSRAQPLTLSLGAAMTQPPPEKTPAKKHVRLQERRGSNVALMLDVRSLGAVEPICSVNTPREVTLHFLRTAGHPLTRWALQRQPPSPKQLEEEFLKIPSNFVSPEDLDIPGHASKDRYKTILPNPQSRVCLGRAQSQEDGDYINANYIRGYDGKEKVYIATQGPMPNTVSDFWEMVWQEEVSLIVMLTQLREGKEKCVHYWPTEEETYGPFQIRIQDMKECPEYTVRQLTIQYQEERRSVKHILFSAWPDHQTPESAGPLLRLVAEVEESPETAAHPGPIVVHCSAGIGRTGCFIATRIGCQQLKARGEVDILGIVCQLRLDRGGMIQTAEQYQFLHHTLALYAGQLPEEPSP

[4] = biological target: T1, Dual specificity protein phosphatase 3; assay: SAR VHR1 Fluorescent Assay for In Vitro dose response studies. [Related pubchem assays (depositor defined):AID1654, AID1661, AID1878, AID1992, AID2004, AID2070, AID2085]; assay type: functional
[5] = biological target: T4, Voltage-gated N-type calcium channel alpha-1B subunit/Amyloid beta A4 precursor protein-binding family A member 1 (Homo sapiens, UniProt Q00975+Q02410); assay: disruptors of Mint-PDZ/N-type channel peptide interaction – biochemical, HTRF, SAR follow-up (AID 2489); assay type: functional
T4 sequence (Q00975 whole entry): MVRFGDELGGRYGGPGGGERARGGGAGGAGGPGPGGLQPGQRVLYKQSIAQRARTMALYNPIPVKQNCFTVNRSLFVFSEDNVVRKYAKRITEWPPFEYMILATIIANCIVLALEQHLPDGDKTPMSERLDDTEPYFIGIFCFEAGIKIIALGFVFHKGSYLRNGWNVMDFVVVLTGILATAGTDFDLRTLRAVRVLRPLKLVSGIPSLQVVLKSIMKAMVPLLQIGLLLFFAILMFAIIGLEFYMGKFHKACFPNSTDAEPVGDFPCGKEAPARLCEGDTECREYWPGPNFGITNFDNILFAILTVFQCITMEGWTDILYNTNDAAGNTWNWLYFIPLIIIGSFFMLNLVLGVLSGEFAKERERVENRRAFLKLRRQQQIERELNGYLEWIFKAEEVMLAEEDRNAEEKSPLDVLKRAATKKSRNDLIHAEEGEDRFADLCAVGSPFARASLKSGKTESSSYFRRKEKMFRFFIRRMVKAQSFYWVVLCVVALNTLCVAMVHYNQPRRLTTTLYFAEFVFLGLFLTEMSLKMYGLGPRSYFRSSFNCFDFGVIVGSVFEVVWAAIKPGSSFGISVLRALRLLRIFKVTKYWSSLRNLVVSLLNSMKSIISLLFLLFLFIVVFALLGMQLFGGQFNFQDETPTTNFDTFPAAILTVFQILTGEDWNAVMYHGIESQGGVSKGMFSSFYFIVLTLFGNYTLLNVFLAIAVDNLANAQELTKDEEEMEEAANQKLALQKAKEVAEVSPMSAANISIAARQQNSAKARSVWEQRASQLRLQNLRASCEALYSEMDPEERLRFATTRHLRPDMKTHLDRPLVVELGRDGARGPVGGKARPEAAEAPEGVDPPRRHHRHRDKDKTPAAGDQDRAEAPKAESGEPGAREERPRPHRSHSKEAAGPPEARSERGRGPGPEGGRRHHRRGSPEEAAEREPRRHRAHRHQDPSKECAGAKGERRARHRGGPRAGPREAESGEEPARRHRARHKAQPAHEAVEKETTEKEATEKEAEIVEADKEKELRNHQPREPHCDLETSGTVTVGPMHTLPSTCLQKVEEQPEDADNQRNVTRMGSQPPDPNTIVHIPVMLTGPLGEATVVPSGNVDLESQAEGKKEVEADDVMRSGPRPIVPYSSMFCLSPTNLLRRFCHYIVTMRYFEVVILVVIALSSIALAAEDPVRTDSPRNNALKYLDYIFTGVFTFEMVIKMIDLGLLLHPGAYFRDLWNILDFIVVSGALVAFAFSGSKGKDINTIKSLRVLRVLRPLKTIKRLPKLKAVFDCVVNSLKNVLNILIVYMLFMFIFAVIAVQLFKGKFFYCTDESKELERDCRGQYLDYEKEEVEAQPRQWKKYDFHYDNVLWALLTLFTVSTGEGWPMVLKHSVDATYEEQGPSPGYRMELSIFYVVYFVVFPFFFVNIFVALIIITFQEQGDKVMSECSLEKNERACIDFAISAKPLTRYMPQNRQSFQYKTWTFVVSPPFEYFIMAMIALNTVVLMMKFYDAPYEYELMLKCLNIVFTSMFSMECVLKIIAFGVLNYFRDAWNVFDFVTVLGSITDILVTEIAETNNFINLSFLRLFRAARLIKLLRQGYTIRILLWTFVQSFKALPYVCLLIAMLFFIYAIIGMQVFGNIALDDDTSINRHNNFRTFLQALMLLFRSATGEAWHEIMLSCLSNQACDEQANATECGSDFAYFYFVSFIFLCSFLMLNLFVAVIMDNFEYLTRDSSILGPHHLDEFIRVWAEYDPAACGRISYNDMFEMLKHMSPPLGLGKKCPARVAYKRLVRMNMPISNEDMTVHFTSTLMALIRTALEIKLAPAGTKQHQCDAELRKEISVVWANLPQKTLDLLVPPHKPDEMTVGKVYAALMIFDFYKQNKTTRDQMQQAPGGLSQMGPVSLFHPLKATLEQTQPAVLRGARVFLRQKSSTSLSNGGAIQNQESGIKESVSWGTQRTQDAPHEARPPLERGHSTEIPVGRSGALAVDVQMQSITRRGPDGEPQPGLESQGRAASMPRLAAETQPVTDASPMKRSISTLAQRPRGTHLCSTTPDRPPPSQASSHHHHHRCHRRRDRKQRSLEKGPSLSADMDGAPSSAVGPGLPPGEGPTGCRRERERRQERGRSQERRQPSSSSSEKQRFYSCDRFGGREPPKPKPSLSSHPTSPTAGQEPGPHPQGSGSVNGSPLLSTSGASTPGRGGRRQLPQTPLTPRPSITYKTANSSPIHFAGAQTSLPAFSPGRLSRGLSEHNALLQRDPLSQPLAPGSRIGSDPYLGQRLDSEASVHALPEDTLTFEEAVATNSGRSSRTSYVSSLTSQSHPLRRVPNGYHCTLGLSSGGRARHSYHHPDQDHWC
T4 sequence (Q02410 whole entry): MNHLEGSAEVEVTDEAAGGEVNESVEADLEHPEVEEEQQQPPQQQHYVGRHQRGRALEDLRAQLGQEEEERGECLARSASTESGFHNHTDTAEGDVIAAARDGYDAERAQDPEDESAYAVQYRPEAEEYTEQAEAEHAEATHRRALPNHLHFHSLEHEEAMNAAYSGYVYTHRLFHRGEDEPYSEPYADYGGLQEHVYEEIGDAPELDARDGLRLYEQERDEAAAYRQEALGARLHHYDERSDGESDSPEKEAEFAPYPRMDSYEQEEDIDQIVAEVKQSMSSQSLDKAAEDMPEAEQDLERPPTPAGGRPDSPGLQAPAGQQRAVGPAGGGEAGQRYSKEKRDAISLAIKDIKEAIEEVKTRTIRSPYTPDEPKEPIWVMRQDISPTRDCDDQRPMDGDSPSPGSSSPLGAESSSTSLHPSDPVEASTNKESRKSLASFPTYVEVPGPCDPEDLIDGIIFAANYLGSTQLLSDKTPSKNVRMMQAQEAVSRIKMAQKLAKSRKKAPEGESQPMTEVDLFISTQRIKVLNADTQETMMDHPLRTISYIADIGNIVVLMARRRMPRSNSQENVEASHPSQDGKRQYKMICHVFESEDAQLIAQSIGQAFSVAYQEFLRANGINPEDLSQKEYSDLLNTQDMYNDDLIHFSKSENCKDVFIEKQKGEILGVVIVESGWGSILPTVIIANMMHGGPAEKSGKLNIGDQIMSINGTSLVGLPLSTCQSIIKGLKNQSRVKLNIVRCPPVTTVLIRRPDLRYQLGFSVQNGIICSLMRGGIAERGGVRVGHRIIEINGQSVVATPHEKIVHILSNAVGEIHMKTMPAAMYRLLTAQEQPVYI

[6] = biological target: T4, Voltage-gated N-type calcium channel alpha-1B subunit/Amyloid beta A4 precursor protein-binding family A member 1; assay: disruptors of Mint-PDZ/N-type channel peptide interaction – biochemical, HTRF, set 2, SAR follow-up (AID 434980); assay type: functional
Wee1-like protein kinase = Wee1-like protein kinase (Homo sapiens, UniProt P30291); assay: HeLa cell cycle G2/M accumulation – FACS, mechanism study for Wee1 degradation inhibitor project, late-stage follow-up, panel member Wee1 Degradation (AID 2088)
Sequence of Wee1-like protein kinase (P30291 whole entry): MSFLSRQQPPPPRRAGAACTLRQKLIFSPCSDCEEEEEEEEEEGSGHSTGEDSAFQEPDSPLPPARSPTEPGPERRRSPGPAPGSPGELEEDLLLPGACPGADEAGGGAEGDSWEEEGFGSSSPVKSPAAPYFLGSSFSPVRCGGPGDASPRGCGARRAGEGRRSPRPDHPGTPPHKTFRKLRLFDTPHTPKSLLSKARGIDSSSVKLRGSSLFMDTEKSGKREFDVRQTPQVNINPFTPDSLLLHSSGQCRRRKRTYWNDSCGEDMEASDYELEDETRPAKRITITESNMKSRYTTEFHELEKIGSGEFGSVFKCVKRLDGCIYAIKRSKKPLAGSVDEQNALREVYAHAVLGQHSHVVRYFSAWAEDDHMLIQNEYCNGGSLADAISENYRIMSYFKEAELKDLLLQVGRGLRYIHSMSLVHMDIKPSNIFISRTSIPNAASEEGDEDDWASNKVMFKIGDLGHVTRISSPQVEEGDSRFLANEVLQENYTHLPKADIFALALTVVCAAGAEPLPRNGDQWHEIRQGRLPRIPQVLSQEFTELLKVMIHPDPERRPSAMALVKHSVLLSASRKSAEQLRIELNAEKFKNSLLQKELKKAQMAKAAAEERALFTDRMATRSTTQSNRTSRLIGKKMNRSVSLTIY

[7] = biological target: G2/mitotic-specific cyclin-B1 (Homo sapiens, UniProt P14635); assay: HeLa cell cycle G2/M accumulation – FACS, mechanism study for Wee1 degradation inhibitor project, late-stage follow-up, panel member Cyclin B Degradation (AID 2088)
Sequence of G2/mitotic-specific cyclin-B1 (P14635 whole entry): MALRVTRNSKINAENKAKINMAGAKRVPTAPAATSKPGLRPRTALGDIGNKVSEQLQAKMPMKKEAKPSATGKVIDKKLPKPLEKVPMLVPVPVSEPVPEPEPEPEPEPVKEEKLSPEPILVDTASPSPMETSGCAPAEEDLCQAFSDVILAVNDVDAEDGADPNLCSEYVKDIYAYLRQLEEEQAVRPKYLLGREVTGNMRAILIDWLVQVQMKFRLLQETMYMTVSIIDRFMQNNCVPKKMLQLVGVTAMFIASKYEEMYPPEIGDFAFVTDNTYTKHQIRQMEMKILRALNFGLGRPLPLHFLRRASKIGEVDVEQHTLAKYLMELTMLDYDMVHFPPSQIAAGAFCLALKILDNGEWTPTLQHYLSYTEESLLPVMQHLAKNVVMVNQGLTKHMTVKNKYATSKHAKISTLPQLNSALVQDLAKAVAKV

Sequence of X-box-binding protein 1 (P17861 whole entry): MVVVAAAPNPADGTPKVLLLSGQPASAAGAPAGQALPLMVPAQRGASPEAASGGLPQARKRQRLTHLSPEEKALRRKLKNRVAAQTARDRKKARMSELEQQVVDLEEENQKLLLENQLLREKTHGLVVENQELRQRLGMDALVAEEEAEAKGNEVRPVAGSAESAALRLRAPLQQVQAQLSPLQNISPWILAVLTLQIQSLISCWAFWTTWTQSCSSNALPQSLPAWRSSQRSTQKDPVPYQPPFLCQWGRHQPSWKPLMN

## Cc1nn(-c2ccc(C(F)(F)F)cn2)c(C)c1Oc1ccccc1O
X-box-binding protein 1
  Absolute IC50 (XBP1): 10 µM

## CNC(=O)c1cn(CCOc2ccccc2)c2ccccc12
[1]
  IC50: > 100 µM (inactive)
[2]
  IC50: > 100 µM (inactive)
[3]
  IC50: 86.8 µM (active)
[4]
  IC50: > 100 µM (inactive)

## O=C(NCCc1ccccc1)c1cc(-c2ccco2)nc2ccccc12
[5]
  IC50: > 56.8 µM (inactive)
[6]
  IC50: > 56.8 µM (inactive)

## Cn1c(=O)cc(OCCCC(=O)Nc2cccc(C(F)(F)F)c2)c2ccccc21
Wee1-like protein kinase
  EC50: > 49.7 µM (inactive)
[7]
  EC50: > 49.7 µM (inactive)
